pIC50: −log10 of the molar value.
Target: CCR2 (Homo sapiens (Human), UniProt P41597)
Assay: Calcium activity assayed on the FLIPR Tetra in HEK-Gqi5 cells stably expressing CCR2
Format: cell-based
Conditions: FLIPR Tetra calcium assay
Protocol: HEK-Gqi5 cells stably expressing CCR2 were cultured in (DMEM high glucose, 10% FBS, 1% PSA, 400 μg/ml geneticin and 50 μg/ml hygromycin. Appropriate positive control chemokines (MCP-1, MIP1A or RANTES) was used as the positive control agonist for screening compound-induced calcium activity assayed on the FLIPR^Tetra. The drug plates were prepared in 384-well microplates using the EP3 and the MuItiPROBE robotic liquid handling systems. Compounds were synthesized and tested for CCR^2 activity.

CCR2, sequence (P41597 whole entry, species assumed): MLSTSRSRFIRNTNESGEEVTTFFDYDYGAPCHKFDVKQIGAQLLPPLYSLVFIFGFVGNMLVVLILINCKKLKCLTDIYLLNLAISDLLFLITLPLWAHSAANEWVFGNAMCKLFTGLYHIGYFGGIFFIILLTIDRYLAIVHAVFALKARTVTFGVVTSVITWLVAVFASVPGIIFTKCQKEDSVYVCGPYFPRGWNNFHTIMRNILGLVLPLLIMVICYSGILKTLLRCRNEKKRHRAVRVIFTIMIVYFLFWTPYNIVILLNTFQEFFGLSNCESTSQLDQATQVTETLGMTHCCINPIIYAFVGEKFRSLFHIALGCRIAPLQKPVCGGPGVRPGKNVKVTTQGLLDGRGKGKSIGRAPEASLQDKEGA

SMILES | CCR2 % ANTAGONISM [%] | pIC50
Nc1cc(C[S+]([O-])c2ccc(Cl)cc2NS(=O)(=O)c2cc3ccccc3o2)n[nH]1 (stereo not drawn) [N-(2-{[(5-amino-1H-pyrazol-3-yl)methyl]sulfinyl}-5-chlorophenyl)-1-benzofuran-2-sulfonamide] | 99 | 5.86
Nc1cc(CS(=O)(=O)c2ccc(Cl)cc2NS(=O)(=O)c2cc3ccccc3o2)n[nH]1 [N-(2-{[(5-amino-1H-pyrazol-3-yl)methyl]sulfonyl}-5-chlorophenyl)-1-benzofuran-2-sulfonamide] | 98 | 5.73
Nc1cc(CSc2ccc(Cl)cc2NS(=O)(=O)c2cc3ccccc3o2)n[nH]1 [N-(2-{[(5-amino-1H-pyrazol-3-yl)methyl]thio}-5-chlorophenyl)-1-benzofuran-2-sulfonamide] | 105 | 7.60
Nc1nnc(C[S+]([O-])c2ccc(Cl)cc2NS(=O)(=O)c2cc3ccccc3o2)[nH]1 (stereo not drawn) [N-(2-{[(5-amino-4H-1,2,4-triazol-3-yl)methyl]sulfinyl}-5-chlorophenyl)-1-benzofuran-2-sulfonamide] | 48 | 
Nc1nnc(CSc2ccc(Cl)cc2NS(=O)(=O)c2cc3ccccc3o2)[nH]1 [N-(2-{[(5-amino-4H-1,2,4-triazol-3-yl)methyl]thio}-5-chlorophenyl)-1-benzofuran-2-sulfonamide] | 103 | 7.49
Nc1cccc(CS(=O)(=O)c2ccc(Cl)cc2NS(=O)(=O)c2cc3ccccc3o2)[n+]1[O-] [N-(2-{[(6-amino-1-oxidopyridin-2-yl)methyl]sulfonyl}-5-chlorophenyl)-1-benzofuran-2-sulfonamide] | 95 | 6.58
Nc1cccc(C[S+]([O-])c2ccc(Cl)cc2NS(=O)(=O)c2cc3ccccc3o2)n1 (stereo not drawn) [N-(2-{[(6-aminopyridin-2-yl)methyl]sulfinyl}-5-chlorophenyl)-1-benzofuran-2-sulfonamide] | 99 | 7.55
Nc1cccc(CS(=O)(=O)c2ccc(Cl)cc2NS(=O)(=O)c2cc3ccccc3o2)n1 [N-(2-{[(6-aminopyridin-2-yl)methyl]sulfonyl}-5-chlorophenyl)-1-benzofuran-2-sulfonamide] | 102 | 7.82
Nc1cccc(CSc2ccc(Cl)cc2NS(=O)(=O)c2cc3ccccc3o2)n1 [N-(2-{[(6-aminopyridin-2-yl)methyl]thio}-5-chlorophenyl)-1-benzofuran-2-sulfonamide] | 94 | 7.49
O=S(=O)(Nc1cc(Cl)ccc1[S+]([O-])CCc1cn[nH]c1)c1cc2ccccc2o1 (stereo not drawn) [N-(5-chloro-2-{[2-(1H-pyrazol-4-yl)ethyl]sulfinyl}phenyl)-1-benzofuran-2-sulfonamide] | 67 | 5.97
O=S(=O)(CCc1cn[nH]c1)c1ccc(Cl)cc1NS(=O)(=O)c1cc2ccccc2o1 [N-(5-chloro-2-{[2-(1H-pyrazol-4-yl)ethyl]sulfonyl}phenyl)-1-benzofuran-2-sulfonamide] | 93 | 6.24
O=S(=O)(Nc1cc(Cl)ccc1SCCc1cn[nH]c1)c1cc2ccccc2o1 [N-(5-chloro-2-{[2-(1H-pyrazol-4-yl)ethyl]thio}phenyl)-1-benzofuran-2-sulfonamide] | 91 | 6.39
Cc1n[nH]c(C)c1CC[S+]([O-])c1ccc(Cl)cc1NS(=O)(=O)c1cc2ccccc2o1 (stereo not drawn) [N-(5-chloro-2-{[2-(3,5-dimethyl-1H-pyrazol-4-yl)ethyl]sulfinyl}phenyl)-1-benzofuran-2-sulfonamide] | 83 | 5.52
Cc1n[nH]c(C)c1CCS(=O)(=O)c1ccc(Cl)cc1NS(=O)(=O)c1cc2ccccc2o1 [N-(5-chloro-2-{[2-(3,5-dimethyl-1H-pyrazol-4-yl)ethyl]sulfonyl}phenyl)-1-benzofuran-2-sulfonamide] | 96 | 5.96
Cc1n[nH]c(C)c1CCSc1ccc(Cl)cc1NS(=O)(=O)c1cc2ccccc2o1 [N-(5-chloro-2-{[2-(3,5-dimethyl-1H-pyrazol-4-yl)ethyl]thio}phenyl)-1-benzofuran-2-sulfonamide] | 89 | 6.55
CN(C)CCC[S+]([O-])c1ccc(Cl)cc1NS(=O)(=O)c1cc2ccccc2o1 (stereo not drawn) [N-(5-chloro-2-{[3-(dimethylamino)propyl]sulfinyl}phenyl)-1-benzofuran-2-sulfonamide] | 81 | 
CN(C)CCCS(=O)(=O)c1ccc(Cl)cc1NS(=O)(=O)c1cc2ccccc2o1 [N-(5-chloro-2-{[3-(dimethylamino)propyl]sulfonyl}phenyl)-1-benzofuran-2-sulfonamide] | 96 | 
CN(C)CCCSc1ccc(Cl)cc1NS(=O)(=O)c1cc2ccccc2o1 [N-(5-chloro-2-{[3-(dimethylamino)propyl]thio}phenyl)-1-benzofuran-2-sulfonamide] | 106 | 5.69

SMILES | CCR2 % ANTAGONISM [%] | pIC50
C[N+](C)([O-])CCCS(=O)(=O)c1ccc(Cl)cc1NS(=O)(=O)c1cc2ccccc2o1 [N-(5-chloro-2-{[3-(dimethylnitroryl)propyl]sulfonyl}phenyl)-1-benzofuran-2-sulfonamide] | 83 | 
O=S(=O)(Nc1cc(Cl)ccc1[S+]([O-])Cc1cccc[n+]1[O-])c1cc2ccccc2o1 (stereo not drawn) [N-(5-chloro-2-{[(1-oxidopyridin-2-yl)methyl]sulfinyl}phenyl)-1-benzofuran-2-sulfonamide] | 101 | 6.07
O=S(=O)(Cc1cccc[n+]1[O-])c1ccc(Cl)cc1NS(=O)(=O)c1cc2ccccc2o1 [N-(5-chloro-2-{[(1-oxidopyridin-2-yl)methyl]sulfonyl}phenyl)-1-benzofuran-2-sulfonamide] | 102 | 6.18
O=S(=O)(Nc1cc(Cl)ccc1[S+]([O-])Cc1ccc[n+]([O-])c1)c1cc2ccccc2o1 (stereo not drawn) [N-(5-chloro-2-{[(1-oxidopyridin-3-yl)methyl]sulfinyl}phenyl)-1-benzofuran-2-sulfonamide] | 101 | 6.19
O=S(=O)(Cc1ccc[n+]([O-])c1)c1ccc(Cl)cc1NS(=O)(=O)c1cc2ccccc2o1 [N-(5-chloro-2-{[(1-oxidopyridin-3-yl)methyl]sulfonyl}phenyl)-1-benzofuran-2-sulfonamide] | 81 | 5.76
CCCn1cnc(C[S+]([O-])c2ccc(Cl)cc2NS(=O)(=O)c2cc3ccccc3o2)c1 (stereo not drawn) [N-(5-chloro-2-{[(1-propyl-1H-imidazol-4-yl)methyl]sulfinyl}phenyl)-1-benzofuran-2-sulfonamide] | 93 | 6.09
CCCn1cnc(CS(=O)(=O)c2ccc(Cl)cc2NS(=O)(=O)c2cc3ccccc3o2)c1 [N-(5-chloro-2-{[(1-propyl-1H-imidazol-4-yl)methyl]sulfonyl}phenyl)-1-benzofuran-2-sulfonamide] | 98 | 6.09
CCCn1cnc(CSc2ccc(Cl)cc2NS(=O)(=O)c2cc3ccccc3o2)c1 [N-(5-chloro-2-{[(1-propyl-1H-imidazol-4-yl)methyl]thio}phenyl)-1-benzofuran-2-sulfonamide] | 79 | 5.89
O=c1[nH]cc(C[S+]([O-])c2ccc(Cl)cc2NS(=O)(=O)c2cc3ccccc3o2)c(=O)[nH]1 (stereo not drawn) [N-(5-chloro-2-{[(2,4-dioxo-1,2,3,4-tetrahydropyrimidin-5-yl)methyl]sulfinyl}phenyl)-1-benzofuran-2-sulfonamide] | 21 | 5.51
O=c1[nH]cc(CS(=O)(=O)c2ccc(Cl)cc2NS(=O)(=O)c2cc3ccccc3o2)c(=O)[nH]1 [N-(5-chloro-2-{[(2,4-dioxo-1,2,3,4-tetrahydropyrimidin-5-yl)methyl]sulfonyl}phenyl)-1-benzofuran-2-sulfonamide] | 0 | 
O=c1cc(C[S+]([O-])c2ccc(Cl)cc2NS(=O)(=O)c2cc3ccccc3o2)[nH]c(=O)[nH]1 (stereo not drawn) [N-(5-chloro-2-{[(2,6-dioxo-1,2,3,6-tetrahydropyrimidin-4-yl)methyl]sulfinyl}phenyl)-1-benzofuran-2-sulfonamide] | 62 | 
O=c1cc(CS(=O)(=O)c2ccc(Cl)cc2NS(=O)(=O)c2cc3ccccc3o2)[nH]c(=O)[nH]1 [N-(5-chloro-2-{[(2,6-dioxo-1,2,3,6-tetrahydropyrimidin-4-yl)methyl]sulfonyl}phenyl)-1-benzofuran-2-sulfonamide] | 70 | 
O=c1cc(CSc2ccc(Cl)cc2NS(=O)(=O)c2cc3ccccc3o2)[nH]c(=O)[nH]1 [N-(5-chloro-2-{[(2,6-dioxo-1,2,3,6-tetrahydropyrimidin-4-yl)methyl]thio}phenyl)-1-benzofuran-2-sulfonamide] | 98 | 5.63
O=S(=O)(Nc1cc(Cl)ccc1[S+]([O-])Cc1cccnc1F)c1cc2ccccc2o1 (stereo not drawn) [N-(5-chloro-2-{[(2-fluoropyridin-3-yl)methyl]sulfinyl}phenyl)-1-benzofuran-2-sulfonamide] | 95 | 7.10
O=S(=O)(Cc1cccnc1F)c1ccc(Cl)cc1NS(=O)(=O)c1cc2ccccc2o1 [N-(5-chloro-2-{[(2-fluoropyridin-3-yl)methyl]sulfonyl}phenyl)-1-benzofuran-2-sulfonamide] | 88 | 7.10
O=S(=O)(Nc1cc(Cl)ccc1SCc1cccnc1F)c1cc2ccccc2o1 [N-(5-chloro-2-{[(2-fluoropyridin-3-yl)methyl]thio}phenyl)-1-benzofuran-2-sulfonamide] | 76 | 7.03
O=C1NCC(C[S+]([O-])c2ccc(Cl)cc2NS(=O)(=O)c2cc3ccccc3o2)O1 (stereo not drawn) [N-(5-chloro-2-{[(2-oxo-1,3-oxazolidin-5-yl)methyl]sulfinyl}phenyl)-1-benzofuran-2-sulfonamide] | 79 | 5.67

Source: patent US9663460B2, “Sulfur derivatives as chemokine receptor modulators” (ALLERGAN, INC., priority 2010, dated 2017)
